Data reported in paper PMC10111413 (ACS Infectious Diseases, 2023).
In brackets after ≈: the same amount, converted by molar mass. Where a SMILES comes first, the peptide text is derived from it. Bridges are numbered along the chain shown (N, C = ends). [ ]: non-standard residue; d: D form. The star is where a group is joined. ξ: configuration not given here. Hexanoyl(4ξ-Me) = CCC(C)CCC(=O)*; dOrn = NCCC[C@@H](N)C(=O)O; Orn = NCCC[C@H](N)C(=O)O; Dap = NC[C@H](N)C(=O)O

Assays:
E. coli ATCC 25922 mcr-1 = format: cell-based; settings: CLSI microbroth dilution, Mueller Hinton broth, 18 h at 37 °C, visual read-out, three technical replicates; mcr-1 colistin resistance plasmid
Experimental: (§1) The antibacterial activities of relacidine A (3a) and B (4a), along with diastereomers 3b and 4b–d and relacidamide (5), were assessed using a standard microbroth dilution assay to establish minimum inhibitory concentration (MIC) values against a panel of Gram-negative bacteria (Table 1). The MIC values measured for synthetic relacidine A (3a) and B (4a) agree well with those previously published.[9] […] Relacidine A (3a) and B (4a), as well as relacidamide (5), were further tested against a panel of colistin-resistant A. baumannii clinical isolates, which confirmed their ability to prevent the growth of colistin-resistant isolates (Supplemental Table S2). […] Also of interest was the finding that while relacidine B (4a) induced <1% hemolysis, a substitution of either the L-Ala or L-Ser to D-Ala or D-Ser increased hemolytic activity to 8–12%. […] The greater hydrolytic stability of relacidine B would appear to be attributable to the increased steric bulk of the Ala side chain next to the ester linkage (compared with the methylene of Gly in relacidine A), which may hinder the nucleophilic attack of water at the ester carbonyl.
(§2) Colistin sulfate was purchased from Activate Scientific. Kanamycin monosulfate was purchased from MP Biomedicals. E. coli ATCC 25922, S. aureus USA300 (ATCC BAA1717), and K. pneumoniae ATCC 13883 belong to the American Type Culture Collection (ATCC). P. aeruginosa PAO1 was kindly provided by L.H.C. Quarles Van Ufford of Utrecht University, Utrecht, The Netherlands. E. coli ATCC 25922 MCR-1 was transfected in-house using the pGDP2-MCR1 plasmid kindly provided by Yong-Xin Li of The University of Hong Kong, Hong Kong, China. Sheep blood agar plates (ref. PB5039A) were purchased from Thermo Scientific. Tryptic soy broth (ref. 02-200-500) was purchased from Scharlab. Mueller-Hinton broth (ref. X927.1) was purchased from Carl Roth. Polypropylene 96-wells plates (ref. 3879) were purchased from Corning.
(§3) MICs were determined according to Clinical and Standards Laboratory Institute (CLSI) guidelines. Blood agar plates were inoculated with glycerol stocks of E. coli ATCC 25922, K. pneumoniae ATCC 13883, P. aeruginosa PAO1, and S. aureus USA300. The inoculated agar plates were then incubated for 16 h at 37 °C. Individually grown colonies were subsequently used to inoculate 5 mL aliquots of tryptic soy broth (TSB) that were then incubated at 37 °C with shaking at 220 rpm. E. coli 25922 MCR-1 glycerol stock was used to inoculate 5 mL of TSB supplemented with kanamycin that was then incubated for 16 h at 37 °C with shaking at 220 rpm. The next day, the culture was diluted 100-fold in TSB supplemented with kanamycin and incubated at 37 °C with shaking at 220 rpm. In parallel, the lipopeptide antibiotic DMSO stocks to be assessed were serially diluted with Mueller Hinton broth (MHB) in polypropylene 96-well plates (50 μL in each well). Colistin sulfate stocks were dissolved in water before being diluted with MHB. Aliquots of the inoculated TSB were incubated until an OD600 of around 0.5 was reached. The bacterial suspensions were then diluted with MHB (2 × 10^5 cfu mL^–1) and added to the microplates containing the test compounds (50 μL to each well). The well plates were sealed with an adhesive membrane, and after 18 h of incubation at 37 °C with shaking at 600 rpm, the wells were visually inspected for bacterial growth. MIC values reported are based on three technical replicates and defined as the lowest concentration of the compound that prevented visible growth of bacteria.

E. coli ATCC 25922 = format: cell-based; settings: ATCC 25922, 18 h
Experimental: as §1, §2, §3

K. pneumoniae ATCC 13883 = format: cell-based; settings: ATCC 13883, 18 h
Experimental: as §1, §2, §3

P. aeruginosa PAO1 = format: cell-based; settings: PAO1, 18 h
Experimental: as §1, §2, §3

S. aureus USA300 = format: cell-based; settings: USA300, 18 h
Experimental: as §1, §2, §3

A. baumannii ATCC 17978 = format: cell-based; settings: ATCC 17978, 18 h
Experimental: (§4) VIII. Antimicrobial testing
(§5) Table S2. Minimum inhibitory concentrations (MICs) determined against panel of previously characterized colistin-resistant A. baumannii clinical isolates5
(§6) Strain Relacidine A (3a) Relacidine B (4a) Relacidamide (5) Colistin […]
(§7) aMIC values given in µg/ml.
(§8) All minimum inhibitory concentrations were determined according to Clinical and Standards Laboratory Institute (CLSI) guidelines. Blood agar plates were inoculated from glycerol stocks of the different A. baumannii strains used and then incubated for 16 h at 37 °C . Individually grown colonies were subsequently used to inoculate 5 mL aliquots of TSB that were then incubated at 37 °C. In parallel, the lipopeptide antibiotics DMSO stocks to be assessed were serially diluted with cation-adjusted MHB in polypropylene 96-well plates (50 µL in each well). Colistin sulfate stocks were dissolved in water before being diluted with cation-adjusted MHB. The A. baumannii inoculated TSB aliquots were incubated until an OD600 of around 0.5 was reached. The bacterial suspensions were then diluted with cation-adjusted MHB (2 x 10^5 CFU mL-1) and added to the microplates containing the test compounds (50 µL to each well). The well-plates were sealed with an adhesive membrane and after 18 h of incubation at 37 °C visually inspected for bacterial growth. MIC values reported are based on three technical replicates and defined as the lowest concentration of the compound that prevented visible

A. baumannii BV172 = format: cell-based; settings: BV172, 18 h
Experimental: as §4, §5, §6, §7, §8

A. baumannii BV173 = format: cell-based; settings: BV173, 18 h
Experimental: as §4, §5, §6, §7, §8

A. baumannii BV94 = format: cell-based; settings: BV94, 18 h
Experimental: as §4, §5, §6, §7, §8

A. baumannii BV95 = format: cell-based; settings: BV95, 18 h
Experimental: as §4, §5, §6, §7, §8

A. baumannii HUMC1 = format: cell-based; settings: HUMC1, 18 h
Experimental: as §4, §5, §6, §7, §8

A. baumannii LAC-4 = format: cell-based; settings: LAC-4, 18 h
Experimental: as §4, §5, §6, §7, §8

A. baumannii NCTC 13304 = format: cell-based; settings: NCTC 13304, 18 h
Experimental: as §4, §5, §6, §7, §8

A. baumannii NCTC 13420 = format: cell-based; settings: NCTC 13420, 18 h
Experimental: as §4, §5, §6, §7, §8

G. mellonella larvae = settings: in vivo
Text: Given the promising in vitro activity of relacidamide (5), along with its high serum stability, low hemolytic activity, and ease of synthesis, we further evaluated its efficacy in an established in vivo infection model using G. mellonella larvae. The G. mellonella infection model has gained popularity in recent years and provides a convenient method to assess the in vivo effectiveness and toxicity of novel antibiotics.[15],[16] […] The larvae were first injected with either vehicle (PBS) or A. baumannii BV94 suspension in the right second proleg. The moth larvae were then injected in the left second proleg with either PBS (untreated), colistin at 100 mg/kg or 200 mg/kg, or relacidamide (5) at 100 mg/kg or 200 mg/kg. The G. mellonella larvae were then incubated for 72 h, and their survival was assessed twice per day. Relacidamide (5) induced 50% survival after 72 h at 100 mg/kg and 70% survival at 200 mg/kg, whereas none of the larvae treated with colistin survived, and only 10% of the untreated larvae survived after 72 h.

## CCC(C)CCC(=O)N[C@H](CO)C(=O)N[C@H](Cc1ccc(O)cc1)C(=O)N[C@H](Cc1c[nH]c2ccccc12)C(=O)N[C@H](CCCN)C(=O)N[C@@H](CCCN)C(=O)NCC(=O)N[C@H](CCCN)C(=O)N[C@@H](Cc1c[nH]c2ccccc12)C(=O)N[C@H]1CNC(=O)CNC(=O)[C@H](CO)NC(=O)CNC(=O)[C@H]([C@@H](C)CC)NC1=O (stereo partly drawn) [compound 5, Relacidamide] ({Hexanoyl(4ξ-Me)}-[dS][dY][dW][dOrn][Orn]G[dOrn]W[Dap]IGSG; lactam 9-C)
E. coli ATCC 25922 mcr-1
  MIC E. coli ATCC 25922 mcr-1: 2 to 4 µg/mL
E. coli ATCC 25922
  MIC E. coli ATCC 25922: 2 to 4 µg/mL
K. pneumoniae ATCC 13883
  MIC K. pneumoniae ATCC 13883: 4 µg/mL (≈ 2.61 µM)
P. aeruginosa PAO1
  MIC P. aeruginosa PAO1: 8 µg/mL (≈ 5.21 µM)
S. aureus USA300
  MIC S. aureus USA300: >32 µg/mL
A. baumannii ATCC 17978
  MIC A. baumannii ATCC 17978: 4 µg/mL (≈ 2.61 µM)
A. baumannii BV172
  MIC A. baumannii BV172: 16 µg/mL (≈ 10.4 µM)
A. baumannii BV173
  MIC A. baumannii BV173: 16 µg/mL (≈ 10.4 µM)
A. baumannii BV94
  MIC A. baumannii BV94: 8 µg/mL (≈ 5.21 µM)
A. baumannii BV95
  MIC A. baumannii BV95: 8 µg/mL (≈ 5.21 µM)
A. baumannii HUMC1
  MIC A. baumannii HUMC1: 8 µg/mL (≈ 5.21 µM)
A. baumannii LAC-4
  MIC A. baumannii LAC-4: 8 µg/mL (≈ 5.21 µM)
A. baumannii NCTC 13304
  MIC A. baumannii NCTC 13304: 4 µg/mL (≈ 2.61 µM)
A. baumannii NCTC 13420
  MIC A. baumannii NCTC 13420: 16 µg/mL (≈ 10.4 µM)
G. mellonella larvae
  tolerability in G. mellonella larvae: well tolerated up to the highest tested dose
